Entries after “also recorded” stand apart in the source; their conditions may differ. Where a name gives a salt, the structure may show the parent alone.
Assays:
[1] = test system: C2C12 myoblasts; assay: Intracellular calcium determination with Fluo-3AM (confocal microscopy); format: cell-based
Description: To confirm that the f40/7841 polypeptide had no effect on calcium flux, C2C12 myoblasts were treated with f40/7841 polypeptide and intracellular calcium levels were assayed using the calcium-sensitive fluorchrome, Fluo-3AM. For the intracellular Ca^2+ measurements, a Confocal LSM 510 Meta Confocal (Zeiss, Jena, Alemania) microscope with a lasing line excitation of 488 nm was used. C2C12 cells were seeded in 60 mm culture dishes (Nalge Nunc International, Rochester, N.Y.) and cultured for 48 hours at which time each plate contained about 250,000 cells. The cells were loaded with fluorochrome in concentration of 4 μM fluo-3AM (Sigma) in 0.5% Me2SO and 0.1% of pluronic acid F-127 for 30 minutes at 37° C.; washed three times with a modified Dulbecco's solution with 10% of fetal bovine serum and returned to the incubator.
The fluorescence of Fluo-3AM was stimulated at 488 nm and measured at 515 nm using a bandpass filter. The intracellular Ca^2+ was measured for 10 seconds, followed by the addition of 1 μM f40/7841 polypeptide and 1.5 mM of carbachol. The Ca^2+ changes were monitored for 2 minutes and the images were taken every 1.5 sec. The calcium ionophore 4-Br-A23187 (5 μM) followed by 10 mM EGTA were then added to obtain the maximum calcium excitation (Fmax) and the minimum fluorescence (Fmin), respectively. The intracellular [Ca^2+] of fluorescence (F) obtained by the used f40/7841 was calculated in the following way: intracellular [Ca^2+]=Kd*(*F−F*min)/(*F*max−*F*), assuming 450 nM. *Kd* for the fluo-3AM, the concentrations were calculated in cellular populations that contained at least 10 cells.

[2] = test system: corpus cavernosum; assay: In vitro corpus cavernosum assay for smooth muscle relaxation (isolated organ chamber, phenylephrine-contracted tissue); format: cell-based, Wistar adult male rats
Description: The effect of polypeptides on corpus cavernosum contractile activity in vitro was analyzed in corpus cavernosum tissue harvested from Wistar adult male rats. Tissue was vertically positioned in an isolated organ chamber under the conditions described below. Adult male Wistar rats, aged 1.5-2 months and 250-350 g in weight were sacrificed by cervical dislocation and the penis was removed from the base, yielding about 2 cm of isolated tissue. The penile tissue was dissected under a Zeiss STEMI DV4 stereoscopic magnifying glass. The tunica albuginea, which protects the cavernous and spongious corpuses, was gently removed. The cavernous bodies were removed from their central position, obtaining two fragments of equal length and diameter, which were then transferred to a Tyrode physiological solution properly oxygenated (mix of 95% O2 and 5% CO2), at 37° C. at pH 7.4.
The cavernous segments were tied with silk at their distal and proximal extremes and immersed in a Tyrode physiologic solution in the chambers. The distal part was tied to the connecting rod and the proximal portion was connected to the isometric contraction transducer (TRI 201/0-25 g) connected to an analogue/digital interphase Power Lab/4SP Ad instrument, making it possible to store and analyse the registered signals by the use of Chart 5 software. Essentially, the fragments were connected to a analogic tension transducer, which transferred its signal to a Power Lab-Letica interphase, which records, graphs and stores the information generated by the physiologic preparation in force/time (g/min scale).
Prior to assaying the polypeptides, the isolated corpus cavernosum samples were stabilized as follows. After placing the corpus cavernosum in the isolated organ chamber, a 0.5 g tension at a normal velocity (1:1 proportion) was applied for one hour. During this time the basal tension and oxygenation (10 ml/min) remained constant. After the first 20 minutes, the preparation was washed using Tyrode physiologic solution, the tension was fixed and the procedure was repeated every 20 minutes for a total of 4 times. In the final washing process, in Chart 5 control system, the recording speed was modified from 10× to 1×.
The ability of f40/7841 to induce smooth muscle relaxation was assayed in the corpus cavernosum assay described in Example 2 in the presence of 50 μM phenylephrine, a pharmacological agonist of the alpha-adrenergic receptor that induces smooth muscle contraction.
To determine the relaxation potential it was necessary to induce first a maximum contractile response (control), in the presence of a drug that activates α-adrenergic receptors, phenylephrine (50 μM). The obtained results of the experimental series are statistically analyzed with a statistical significance of P<0.05, and graphed with GraphPad Prim.V.3.02 software.

[3] = target: T1, alpha 7 nicotinic acetylcholine receptor (α7nAch) (Homo sapiens, UniProt P36544); assay: Whole-cell patch clamp of PC12 cells engineered to express the alpha 7 nicotinic acetylcholine receptor; format: cell-based
T1 construct: expressed in transfected cells; host or cells: PC12 cells
T1 sequence (P36544 23-502): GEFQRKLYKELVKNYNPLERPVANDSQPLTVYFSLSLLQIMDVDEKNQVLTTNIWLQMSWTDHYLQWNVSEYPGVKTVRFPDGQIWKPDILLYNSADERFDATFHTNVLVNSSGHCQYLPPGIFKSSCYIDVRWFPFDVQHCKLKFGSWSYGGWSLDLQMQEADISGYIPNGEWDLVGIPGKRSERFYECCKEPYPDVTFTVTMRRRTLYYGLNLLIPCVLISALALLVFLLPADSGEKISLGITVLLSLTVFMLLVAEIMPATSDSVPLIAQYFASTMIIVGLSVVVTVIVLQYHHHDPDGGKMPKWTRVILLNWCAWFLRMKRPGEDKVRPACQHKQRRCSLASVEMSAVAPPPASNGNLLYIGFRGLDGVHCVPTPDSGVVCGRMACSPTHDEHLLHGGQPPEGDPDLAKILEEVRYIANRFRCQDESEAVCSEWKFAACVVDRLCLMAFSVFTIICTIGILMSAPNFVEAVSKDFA
Description: The ability of the f40/7841 polypeptide to activate nicotinic acetylcholine receptors (nAChR) was assayed by whole cell patch clamp analysis of PC12 cells that had been engineered to express the alpha 7 nicotinic acetylcholine receptor (α7nAch). PC12 cells were transfected and cultured for 48 hours in an 80% of MEM, solution that contained (mM): 150 NaCl, 5.4 KCl, 2.0 CaCl2, 1.0 MgCl2, 10 glucose and 10 Hepes (7.4), 2 mM, and 10% of fetal bovine serum at 37° C. (Trifaro et al. In vitro Cell Dev. Biol. 1990). The cells were incubated for one hour at 22° C. before starting the experiments. The current changes were detected through a whole-cell patch-clamp system through a Warner PC-501^a amplifier and an inverted Olympus 9° 70 microscope. The membrane potential was adjusted to −60 mV; the current was recorded at intervals of 5 μs and it was filtered at 2 Kh using a computer connected to a recording system through an acquisition card Digidata 9.0 (Axon Instrument, Inc) and the software PC 9 (Axon Instrument, Inc). The stock solution for the assays with the peptides were kept refrigerated at 4° C. and the micropipettes contained an internal solution of: 140 mM NaCl, 5 mM KCl, 2 mM CaCl2, 1.5 mM MgCl2, and 10 mM HEPES, pH 7.4.
The purified f40/7841 polypeptide was purified according to the method in Example 1. 0.1 mg of the polypeptide was diluted in 100 μl. of sterile PBS at pH 7.4. […]

[4] = test system: corpus cavernosum; assay: In vitro corpus cavernosum assay for smooth muscle relaxation (isolated organ chamber, phenylephrine-contracted tissue); format: cell-based, Wistar adult male rats; conditions: phenylephrine 5 μM, atropine 1 μM, polypeptide 1 μgml (FIG. 13)

Molecule: CNc1c(Br)cc2oc(C[C@H]3OC4(CC[C@H]3C)O[C@H]([C@H](C)C(=O)c3ccc[nH]3)[C@H](C)C[C@H]4C)nc2c1C(=O)O (some centres unmarked) [4-Br-A23187]
- Fluo-3AM fluorescence (calcium) after ionophore ([1]; 4-Br-A23187 5 μM, positive control (FIG. 17)): sharp spike of fluorescence

Molecule: O=C(O)CN(CCOCCOCCN(CC(=O)O)CC(=O)O)CC(=O)O [EGTA]
- effect on ionophore-induced fluorescence spike ([1]; 10 mM EGTA added after 4-Br-A23187 (FIG. 17)): abolished

Molecule: CN1[C@@H]2CC[C@H]1C[C@@H](OC(=O)C(CO)c1ccccc1)C2 (some centres unmarked) [atropine]
- tonic response to phenylephrine in the presence of atropine ([2]; atropine 1 uM added after 40 minutes of phenylephrine (FIG. 13, upper tracing)): gradually reduced over time

Molecule: C[N+](C)(C)CCOC(N)=O [carbachol]
- potassium current ([3]; 10 μM carbachol, positive control, membrane potential −60 mV (FIG. 15)): 10 pA

Molecule: CNC[C@H](O)c1cccc(O)c1 [phenylephrine]
- contractile response of corpus cavernosum ([2]; phenylephrine 50 μM (FIG. 7, FIG. 9)): phasic contractile response followed by a steadily maintained tonic response; also recorded: quick phasic contraction

Molecule: CCCc1nn(C)c2c(=O)[nH]c(-c3cc(S(=O)(=O)N4CCN(C)CC4)ccc3OCC)nc12 [sildenafil citrate, 1-[4-ethoxy-3-(6,7-dihydro-1-methyl-7-oxo-3-propyl-1H-pyrazolo[4,3-d]pyrimidin-5-yl)phenylsulfonyl]-4-methylpiperazine]
- contractile response after sildenafil citrate alone ([2]; 1 μM, after 50 μM phenylephrine, over a period of 25-30 minutes (FIG. 1)): slow decrease of the contractile response
- concentration of sildenafil citrate alone required for a relaxation rate comparable to f40/7841 plus 1 μM sildenafil citrate ([2]; after 50 μM phenylephrine, typical value): 100 µM

B1: f40/7841 (protein)
chain: GDSLDPAEFACADDIDQAELLKNNDICLQCEDLHKEGLVFSLCKTNCFSTEYFQHCVKDLEEAKKEPPE
modifications: also: blocked N-terminus, not given here
- ability to induce relaxation, atropine added prior to phenylephrine ([2]; 1 μM atropine, then phenylephrine 50 μM, polypeptide 2 μg/ml after twenty minutes (FIG. 14)): attenuated
- effect on tonic contraction (relaxation) ([2]; 2 μg/ml added after 20 minutes of 50 μM phenylephrine (FIG. 10)): rapid decrease in tonic contraction
- relaxation of contracted tissue in the presence of L-NAME (nitric oxide synthase inhibitor) ([2]; phenylephrine, then L-NAME 10 mM, then polypeptide 0.02, 0.2 or 2 μg/ml (FIG. 11, FIG. 12), listed as f40/7481): did not induce a decrease in contraction; also recorded: abolished
- contractile response on co-addition with sildenafil citrate, compared to sildenafil citrate alone ([2]; polypeptide 2 μg/ml plus 1 μM sildenafil citrate, after 50 μM phenylephrine (FIG. 1)): significant decrease in the contractile response
- rapid potassium current ([3]; 0.1 μg/ml polypeptide, membrane potential −60 mV (FIG. 16, in the presence of carbachol)): 500 pA
- calcium flux (intracellular Ca2+, Fluo-3AM fluorescence) ([1]; 1 μM polypeptide and 1.5 mM carbachol, monitored for 2 minutes (FIG. 17)): did not induce calcium flux
- ability to induce relaxation in the presence of atropine [4]: attenuated
